Measurements: PubChem BioAssay (NCI)
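Growth conditions: 96-well plates. Treatment: test compound, 48 hours, 5 concentrations. Analysis: linear interpolation between bracketing concentrations; unreached endpoints set to highest concentration. The concentration for full growth arrest is given as TGI.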 Where a SMILES comes first, the peptide text is derived from it. [ ]: non-standard residue; d: D form. The star is where a group is joined. ξ: configuration not given here. ξPhe(4-NO2) = NC(Cc1ccc([N+](=O)[O-])cc1)C(=O)O; Boc = CC(C)(C)OC(=O)*; OBn = c1ccc(CO*)cc1

How the values were obtained:
Assay in all cases: NCI anticancer screen, dose series, 48 h
[1] = tested on: A498 renal
[2] = tested on: CAKI-1 renal
[3] = tested on: CCRF-CEM leukemia
[4] = tested on: HCC-2998 colon
[5] = tested on: HCT-116 colon
[6] = tested on: HL-60(TB) leukemia
[7] = tested on: HS 578T breast
[8] = tested on: NCI-H23 lung
[9] = tested on: NCI-H522 lung
[10] = tested on: OVCAR-3 ovarian
[11] = tested on: OVCAR-5 ovarian
[12] = tested on: SK-MEL-2 melanoma
[13] = tested on: U251 CNS
[14] = tested on: UO-31 renal

Row | Compound | TGI [1] [µM] | TGI [2] [µM] | TGI [3] [µM] | TGI [4] [µM] | TGI [5] [µM] | TGI [6] [µM] | TGI [7] [µM] | TGI [8] [µM] | TGI [9] [µM] | TGI [10] [µM] | TGI [11] [µM] | TGI [12] [µM] | TGI [13] [µM] | TGI [14] [µM]
1 | C/C(=N\NS(=O)(=O)c1ccc(C)cc1)C(CN(C)C)C(c1ccccc1)c1c(O)c2ccccc2oc1=O (stereo not drawn) | > 100 | > 100 | > 100 | > 100 | > 100 | > 100 | > 100 | > 100 | > 100 | > 100 | > 100 | > 100 | > 100 | > 100
2 | CN1CC2=C(NC(=S)NC2c2ccc(Cl)cc2)/C(=C/c2ccc(Cl)cc2)C1 (stereo not drawn) | – | 32.4 | 30.9 | 34 | 29.2 | 48 | 40.3 | 43.8 | 31 | 29.3 | 31.4 | 30.2 | 33.3 | > 100
3 | CC(C)C[C@H](NC(=O)CCc1ccccc1)B(O)O | 14 | 25.2 | 7.33 | 27 | 18.6 | 8.8 | 29.6 | > 100 | 31.1 | 17.4 | 40.2 | 39.4 | > 100 | 60.1
4 | C[C@]12CC(c3ccccc3O1)C(C#N)C(=O)N2 (stereo partly drawn) | > 100 | > 100 | > 100 | > 100 | > 100 | > 100 | > 100 | > 100 | – | > 100 | > 100 | > 100 | > 100 | –
5 | CCCC(=O)N/S(=N/S(=O)(=O)c1ccc(Cl)cc1)C(Cl)(Cl)Cl (stereo not drawn) | > 100 | – | > 100 | > 100 | > 100 | > 100 | > 100 | > 100 | – | > 100 | > 100 | > 100 | > 100 | > 100
6 | Nc1nc(Cl)cc(NCC2(CO)CCC2)n1 | – | > 100 | > 100 | > 100 | > 100 | > 100 | > 100 | > 100 | > 100 | > 100 | > 100 | > 100 | > 100 | > 100
7 | Cc1[nH]n(-c2nc3c(c(=O)[nH]2)CCC3)c(=O)c1CCO | > 100 | > 100 | > 100 | > 100 | > 100 | > 100 | > 100 | > 100 | > 100 | > 100 | > 100 | > 100 | > 100 | > 100
8 | C=CCNC(=O)/C(Cc1cc(Br)c(OC)c(Br)c1O)=N\O | 46.7 | 33.7 | – | 14.2 | 12.7 | 5.43 | 4.23 | 18.1 | 6.07 | 10.7 | 34.4 | 44.5 | 39.8 | 15.6
9 | CCCCSC1=N/C(=C\c2ccco2)C(=O)N1 | > 100 | > 100 | > 100 | > 100 | > 100 | > 100 | 88.3 | > 100 | > 100 | > 100 | > 100 | > 100 | > 100 | > 100
10 | COc1ccc(-c2c3c(n(C4OC(CO)C(O)C(O)C4O)c(=S)c2C#N)CC(C)(C)CC3=O)cc1 (stereo not drawn) | > 100 | > 100 | > 100 | > 100 | > 100 | > 100 | > 100 | > 100 | > 100 | > 100 | > 100 | > 100 | > 100 | > 100
11 | Cc1cnc2[nH]c(-c3ccc(F)cc3)cc(=O)c2c1 | 81.3 | > 100 | > 100 | > 100 | > 100 | 20.4 | > 100 | > 100 | 50.4 | > 78.3 | > 100 | > 82.1 | > 91.8 | > 100
12 | COc1cc2c(cc1OC)C1C(O)C(OC)C=C3CC[N+](C)(C2)C31 (stereo not drawn) | > 100 | > 100 | > 100 | > 100 | > 100 | > 100 | > 100 | > 100 | > 100 | > 100 | > 100 | > 100 | > 100 | > 100
13 | CS(=O)(=O)c1[nH]nc2[nH]c(=O)[nH]c(=O)c12 | > 10 | > 10 | > 10 | > 10 | > 10 | > 10 | > 10 | > 10 | > 10 | > 10 | > 10 | > 10 | > 10 | –
14 | CC(C)(C)OC(=O)NC(Cc1ccc([N+](=O)[O-])cc1)C(=O)NCC(=O)OCc1ccccc1 (stereo not drawn) (Boc-[ξPhe(4-NO2)]-Gly-OBn) | > 100 | 27.7 | 48.8 | 42 | 68.2 | > 100 | 54 | 47.5 | 53 | 50.5 | > 100 | – | 40.6 | 45.4
15 | c1ccc2[nH]c3[nH]c4[nH]c5ccccc5[nH]c4[nH]c3[nH]c2c1 | > 100 | > 100 | > 100 | > 100 | > 100 | > 100 | > 100 | > 100 | > 100 | > 100 | > 100 | > 100 | > 100 | > 100
16 | COC(=O)C(/C(=N/N)C(=O)Nc1cc(Cl)c(Cl)cc1Cl)c1nc2ccc(Cl)cc2[nH]c1=O (stereo not drawn) | > 100 | > 100 | – | – | > 100 | > 100 | > 100 | > 100 | > 100 | > 100 | > 100 | > 100 | > 100 | > 100
